Measured values: PubChem BioAssay (NCI)
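Following 48 hours of exposure in 96-well plates, responses at five concentrations were used to interpolate endpoints linearly. The concentration for 50% growth inhibition is given as GI50. The concentration for full growth arrest is given as TGI.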

Legend:
Test in all cases: growth of human tumour cells (NCI), 48 h
SNB-19 CNS = system: SNB-19 CNS
SK-MEL-28 melanoma = system: SK-MEL-28 melanoma
RXF 393 renal = system: RXF 393 renal
OVCAR-8 ovarian = system: OVCAR-8 ovarian
DU-145 prostate = system: DU-145 prostate
SK-MEL-5 melanoma = system: SK-MEL-5 melanoma
CCRF-CEM leukemia = system: CCRF-CEM leukemia
786-0 renal = system: 786-0 renal
NCI/ADR-RES ovarian = system: NCI/ADR-RES ovarian
HOP-62 NSCLC = system: HOP-62 NSCLC
OVCAR-3 ovarian = system: OVCAR-3 ovarian
HT29 colon = system: HT29 colon
UO-31 renal = system: UO-31 renal
SR leukemia = system: SR leukemia
HCT-116 colon = system: HCT-116 colon
MDA-MB-231 breast = system: MDA-MB-231 breast
SW-620 colon = system: SW-620 colon
SF-268 CNS = system: SF-268 CNS
MOLT-4 leukemia = system: MOLT-4 leukemia
UACC-257 melanoma = system: UACC-257 melanoma
ACHN renal = system: ACHN renal
NCI-H226 lung = system: NCI-H226 lung
SK-OV-3 ovarian = system: SK-OV-3 ovarian
SK-MEL-2 melanoma = system: SK-MEL-2 melanoma
NCI-H23 lung = system: NCI-H23 lung
SNB-75 CNS = system: SNB-75 CNS
HCC-2998 colon = system: HCC-2998 colon
TK-10 renal = system: TK-10 renal
UACC-62 melanoma = system: UACC-62 melanoma
NCI-H460 lung = system: NCI-H460 lung
M14 melanoma = system: M14 melanoma
SN12C renal = system: SN12C renal
BT-549 breast = system: BT-549 breast
OVCAR-4 ovarian = system: OVCAR-4 ovarian
SF-295 CNS = system: SF-295 CNS
SF-539 CNS = system: SF-539 CNS
COLO 205 colon = system: COLO 205 colon
HCT-15 colon = system: HCT-15 colon
HOP-92 NSCLC = system: HOP-92 NSCLC
A498 renal = system: A498 renal
RPMI-8226 leukemia = system: RPMI-8226 leukemia
U251 CNS = system: U251 CNS
HL-60(TB) leukemia = system: HL-60(TB) leukemia
MALME-3M melanoma = system: MALME-3M melanoma
NCI-H522 lung = system: NCI-H522 lung
IGROV1 ovarian = system: IGROV1 ovarian
OVCAR-5 ovarian = system: OVCAR-5 ovarian
HS 578T breast = system: HS 578T breast
EKVX NSCLC = system: EKVX NSCLC
T-47D breast = system: T-47D breast
CAKI-1 renal = system: CAKI-1 renal
PC-3 prostate = system: PC-3 prostate
A549 NSCLC = system: A549 NSCLC
MDA-MB-468 breast = system: MDA-MB-468 breast
MCF7 breast = system: MCF7 breast
K-562 leukemia = system: K-562 leukemia

O=C(Nc1ccc(OCC(=O)c2ccccc2)cc1)Nc1ccc(Cl)c(C(F)(F)F)c1
GI50 (SNB-19 CNS): 3.16 µM
TGI (SNB-19 CNS): > 100 µM
GI50 (SK-MEL-28 melanoma): 2.97 µM
TGI (SK-MEL-28 melanoma): 25.8 µM
GI50 (RXF 393 renal): 2.78 µM
TGI (RXF 393 renal): 14.3 µM
GI50 (OVCAR-8 ovarian): 4.31 µM
TGI (OVCAR-8 ovarian): > 100 µM
GI50 (DU-145 prostate): 6.81 µM
TGI (DU-145 prostate): > 100 µM
GI50 (SK-MEL-5 melanoma): 2.87 µM
TGI (SK-MEL-5 melanoma): 9.54 µM
GI50 (CCRF-CEM leukemia): 3.54 µM
TGI (CCRF-CEM leukemia): > 100 µM
GI50 (786-0 renal): 4.12 µM
TGI (786-0 renal): 32.5 µM
GI50 (NCI/ADR-RES ovarian): 3.45 µM
TGI (NCI/ADR-RES ovarian): > 100 µM
GI50 (HOP-62 NSCLC): 5.76 µM
TGI (HOP-62 NSCLC): 35.2 µM
GI50 (OVCAR-3 ovarian): 2.76 µM
TGI (OVCAR-3 ovarian): > 100 µM
GI50 (HT29 colon): 3.34 µM
TGI (HT29 colon): > 100 µM
GI50 (UO-31 renal): 3.18 µM
TGI (UO-31 renal): > 100 µM
GI50 (SR leukemia): 2.52 µM
TGI (SR leukemia): > 100 µM
GI50 (HCT-116 colon): 3.69 µM
TGI (HCT-116 colon): > 100 µM
GI50 (MDA-MB-231 breast): 2.87 µM
TGI (MDA-MB-231 breast): 11.4 µM
GI50 (SW-620 colon): 3.74 µM
TGI (SW-620 colon): > 100 µM
GI50 (SF-268 CNS): 3.51 µM
TGI (SF-268 CNS): > 100 µM
GI50 (MOLT-4 leukemia): 2.48 µM
TGI (MOLT-4 leukemia): > 100 µM
GI50 (UACC-257 melanoma): 3.78 µM
TGI (UACC-257 melanoma): > 100 µM
GI50 (ACHN renal): 3.17 µM
TGI (ACHN renal): > 100 µM
GI50 (NCI-H226 lung): 3.73 µM
TGI (NCI-H226 lung): > 100 µM
GI50 (SK-OV-3 ovarian): 8.74 µM
TGI (SK-OV-3 ovarian): 60.7 µM
GI50 (SK-MEL-2 melanoma): 2.07 µM
TGI (SK-MEL-2 melanoma): 4.8 µM
GI50 (NCI-H23 lung): 3.28 µM
TGI (NCI-H23 lung): 48.9 µM
GI50 (SNB-75 CNS): 2.27 µM
TGI (SNB-75 CNS): 19.9 µM
GI50 (HCC-2998 colon): 3.37 µM
TGI (HCC-2998 colon): > 100 µM
GI50 (TK-10 renal): 6.25 µM
TGI (TK-10 renal): 40.3 µM
GI50 (UACC-62 melanoma): 2.26 µM
TGI (UACC-62 melanoma): 6.2 µM
GI50 (NCI-H460 lung): 3.07 µM
TGI (NCI-H460 lung): > 100 µM
GI50 (M14 melanoma): 2.97 µM
TGI (M14 melanoma): > 100 µM
GI50 (SN12C renal): 3.18 µM
TGI (SN12C renal): > 100 µM
GI50 (BT-549 breast): 11.5 µM
TGI (BT-549 breast): > 100 µM
GI50 (OVCAR-4 ovarian): 4.39 µM
TGI (OVCAR-4 ovarian): > 100 µM
GI50 (SF-295 CNS): 2.74 µM
TGI (SF-295 CNS): 13.5 µM
GI50 (SF-539 CNS): 3.28 µM
TGI (SF-539 CNS): 12.8 µM
GI50 (COLO 205 colon): 4.32 µM
TGI (COLO 205 colon): > 100 µM
GI50 (HCT-15 colon): 2.92 µM
TGI (HCT-15 colon): > 100 µM
GI50 (HOP-92 NSCLC): 3.48 µM
TGI (HOP-92 NSCLC): 17.5 µM
GI50 (A498 renal): 3.59 µM
TGI (A498 renal): 18.2 µM
GI50 (RPMI-8226 leukemia): 3.51 µM
TGI (RPMI-8226 leukemia): > 100 µM
GI50 (U251 CNS): 2.95 µM
TGI (U251 CNS): 12.8 µM
GI50 (HL-60(TB) leukemia): 3 µM
TGI (HL-60(TB) leukemia): 40.2 µM
GI50 (MALME-3M melanoma): 3.11 µM
TGI (MALME-3M melanoma): > 100 µM
GI50 (NCI-H522 lung): 1.96 µM
TGI (NCI-H522 lung): 6.15 µM
GI50 (IGROV1 ovarian): 4.38 µM
TGI (IGROV1 ovarian): > 100 µM
GI50 (OVCAR-5 ovarian): 5.28 µM
TGI (OVCAR-5 ovarian): > 100 µM
GI50 (HS 578T breast): 3.51 µM
TGI (HS 578T breast): 31.1 µM
GI50 (EKVX NSCLC): 3.26 µM
TGI (EKVX NSCLC): > 100 µM
GI50 (T-47D breast): 3.13 µM
TGI (T-47D breast): > 100 µM
GI50 (CAKI-1 renal): 3.31 µM
TGI (CAKI-1 renal): > 100 µM
GI50 (PC-3 prostate): 2.83 µM
TGI (PC-3 prostate): > 100 µM
GI50 (A549 NSCLC): 3.64 µM
TGI (A549 NSCLC): > 100 µM
GI50 (MDA-MB-468 breast): 2.41 µM
TGI (MDA-MB-468 breast): 7.05 µM
GI50 (MCF7 breast): 3.37 µM
TGI (MCF7 breast): > 100 µM
GI50 (K-562 leukemia): 3.66 µM
TGI (K-562 leukemia): > 100 µM
